We go through twelve compounds from US20240139178A1, “METHOD FOR MANUFACTURING COMPOSITION FOR COMPOSITION FOR INCREASING COGNITIVE FUNCTION” (priority 2018, published 2024).

The target in one assay is T1, Aβ1-42 (Homo sapiens, UniProt P05067).
T1 construct: human A81-42 monomers (UniProtKB-P05067, a.a. 672-713)
T1 sequence (P05067 672-713): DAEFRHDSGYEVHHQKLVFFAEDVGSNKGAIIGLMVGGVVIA
Description: Aβ disaggregation test of rifamycin-based derivatives by Thioflavin T analysis. Format: biochemical. The conditions noted are these: 50 μM compound, 50 μM Aβ1-42 aggregated 3 days, then 2 days of reaction. On the procedure:
The compound was then used diluted with 6% DMSO (in DW).
The Aβ solution was prepared by dissolving Aβ 1-42 monomers to the concentration of 10 mM in DMSO. Thereafter, the mixture was diluted to 100 μM by using DW and stored on ice.
On the other hand, Thioflavin-T was dissolved to the concentration of 5 mM in 50 mM glycine buffer (pH 8.5). Then, the resultant solution was diluted to the concentration of 50 μM by using 50 mM glycine buffer (pH 8.5) and stored in the dark while light was blocked.
The Aβ solution prepared in Example 3.1. was placed in 1.5 mL microcentrifuge tubes, each having 50 μM of the Aβ solution, and then reacted at 37° C. for 72 hours.
Each 1.5 mL microcentrifuge tube was treated with 50 μM rifapentine-based derivatives, followed by reaction at 37° C. for 48 hours.
(§1) 25 μL of the reaction solution in which the reaction was completed was added to each well of a 96-well fluorescence assay plate, and 75 μL of the Thioflavin-T solution prepared above was added to each well. After reacting for 5 minutes in the dark at room temperature, fluorescence values were measured at excitation 450 nm and emission 485 nm by using a multi-mode microplate reader.
The fluorescence value of the group (control) treated with Aβ alone and aggregated for 72 hours by treating only Aβ was considered as 100%, and the measured fluorescence values were expressed as a relative value thereto, and results thereof are shown in FIG. 7.
In the case of “3-[[[4-(2-Methylpropyl)-1-piperazinyl]imino]methyl]rifamycin [rifamdin]”, the “Aβ disaggregation effect compared to the control” value is recorded as “about 50%”.
Consider `CO[C@H]1/C=C/O[C@@]2(C)Oc3c(C)c(O)c4c(O)c(c5c(nc6cc(C)ccn65)c4c3C2=O)NC(=O)/C(C)=C\C=C\[C@H](C)[C@H](O)[C@@H](C)[C@@H](O)[C@@H](C)[C@H](OC(C)=O)[C@@H]1C` (relative stereo) [rifaximin, [2S-(2R*,16Z,18E,20R*,21R*,22S*,23S*,24S*,25R*,26S*,27R*,22E)]-25-acetyloxy) -5,6,21,23-tetrahydroxy-27-methoxy-2,4,11,16,20,22,24,26-octamethyl-2,7-(epoxypentadeca [1,11,13] trienimino) benzofuro [4,5-e] pyrido [1,2-a] benzimidazole-1,15 (2H) -dione], for which the “Aβ disaggregation effect compared to the control” value is “significant disaggregation did not occur”.
In the case of `CO[C@H]1/C=C/O[C@@]2(C)Oc3c(C)c(O)c4c(O)c(c(/C=N/N5CCN(C)CC5)c(O)c4c3C2=O)NC(=O)/C(C)=C\C=C\[C@H](C)[C@H](O)[C@@H](C)[C@@H](O)[C@@H](C)[C@H](OC(C)=O)[C@@H]1C` [rifampicin, 5,6,9,17,19,21-hexahydroxy-23-methoxy-2,4,12,16,18,20,22-heptamethyl-8-[N-(4-methyl-1-piperazinyl) formimidoyl]-2,7-(epoxypentadeca [1,11,13]trienimino)-naphtho [2,1-b] furan-1,11 (2H) -dione 21-acetate], the “Aβ disaggregation effect compared to the control” value is on record as “about 50%”.
Turning to `CO[C@H]1/C=C/O[C@@]2(C)Oc3c(C)c(O)c4c(O)c(cc(OCC(=O)O)c4c3C2=O)NC(=O)/C(C)=C\C=C\[C@H](C)[C@H](O)[C@@H](C)[C@@H](O)[C@@H](C)[C@H](OC(C)=O)[C@@H]1C` [rifamycin B, {[(2S,12Z,14E,16S,17S,18R,19R,20R,21S,22R,23S,24E)-21-(acetyloxy)-5,6,17,19-tetrahydroxy-23-methoxy-2,4,12,16,18,20,22-heptamethyl-1,11-dioxo-1,2-dihydro-2,7-(epoxypentadeca[1,11,13]trienoimino)naphtho[2,1-b]furan-9-yl]oxy}acetic acid], the “Aβ disaggregation effect compared to the control” value is on record as “significant disaggregation did not occur”.
For `CO[C@H]1/C=C/O[C@@]2(C)Oc3c(C)c(O)c4c(c3C2=O)C(=O)C=C(NC(=O)/C(C)=C\C=C\[C@H](C)[C@H](O)[C@@H](C)[C@@H](O)[C@@H](C)[C@H](OC(C)=O)[C@@H]1C)C4=O` [rifamycin S, 5,17,19,21-tetrahydroxy-23-methoxy-2,4,12,16,18,20,22-heptamethyl-2,7-(epoxypentadeca[1,11,13]trienimino)naphtho[2,1-b]furan-1,6,9,11(2H)-tetrone 21-acetate], the “Aβ disaggregation effect compared to the control” value was found to be 25%.
Take `CO[C@H]1/C=C/O[C@@]2(C)Oc3c(C)c(O)c4c(O)c(cc(O)c4c3C2=O)NC(=O)/C(C)=C\C=C\[C@H](C)[C@H](O)[C@@H](C)[C@@H](O)[C@@H](C)[C@H](OC(C)=O)[C@@H]1C` [rifamycin SV, 5,6,9,17,19,21-Hexahydroxy-23-methoxy-2,4,12,16,18,20,22-heptamethyl-2,7-(epoxypentadeca[1,11,13]trienimino)naphtho[2,1-b]furan-1,11(2H)-dione 21-acetate]: the “Aβ disaggregation effect compared to the control” value is given as “about 50%”.
Consider `COC1C=COC2(C)Oc3c(C)c(O)c4c(O)c(c5c(c4c3C2=O)=NC2(CCN(CC(C)C)CC2)N=5)NC(=O)C(C)=CC=CC(C)C(O)C(C)C(O)C(C)C(OC(C)=O)C1C` [ripabutin, (S,12E,14S,15R,16S,17R,18R,19R,20S,21S,22E,24Z)-6,16,18,20-tetrahydroxy-1′-isobutyl-14-methoxy-7,9,15,17,19,21,25-heptamethyl-spiro[9,4-(epoxypentadeca[1,11,13]trienimino)-2H-furo[2″,3″:7,8]naphth[1,2-dimidazole-2,4″-piperidine]-5,10,26-(3H,9H)-trione-16-acetate], for which the “Aβ disaggregation effect compared to the control” value was “about 50%”.

The next assay concerns the target T1, Aβ1-42. Nature of the assay: Aβ aggregation inhibition test (Thioflavin T analysis). The conditions noted are these: 20 μM compound, 50 μM Aβ, 3 days; relative to control (100%). Format: biochemical. As for the experimental part: Then, the compound was used diluted by using 6% DMSO (in DW) and used.
Triflupromazine hydrochloride (triflupromazine used in all the examples below is triflupromazine hydrochloride) was dissolved to a concentration of 5 mM in DMSO. The compound was then used diluted with 6% DMSO (in DW).
The Aβ solution was prepared by dissolving human A81-42 monomers (UniProtKB-P05067, a.a. 672-713) to 10 mM concentration in DMSO. Thereafter, the mixture was diluted to 100 uM by using DW and stored on ice.
On the other hand, Thioflavin-T (Sigma-Aldrich) was dissolved to the concentration of 5 mM in 50 mM glycine buffer (pH 8.5). Then, the resultant solution was diluted to the concentration of 50 μM by using 50 mM glycine buffer (pH 8.5) and stored in the dark while light was blocked.
as §1
The fluorescence value of the group (control) treated with Aβ alone and aggregated for 72 hours was considered as 100%, and the measured fluorescence values were expressed as a relative value thereto, and results thereof are shown in FIG. 1 and FIG. 2.
In addition, by performing the same test as described above for 20 μM of various compounds using 50 μM Aβ, the degree of Aβ aggregation was measured, and the result is expressed as a relative value for control (100%).
Turning to `CCN1CCCC1CNC(=O)c1cc(S(=O)(=O)CC)c(N)cc1OC` (stereo not drawn) [Amisulpride], the “Aggregation (%)” value was found to be 96.29%.
As to `CN1CCN(C2=Nc3cc(Cl)ccc3Nc3ccccc32)CC1` [Clozapine], the “Aggregation (%)” value worked out at 99.14%.
Take `CC12CC3CC(C)(C1)CC(N)(C3)C2` [Mementine]: the “Aggregation (%)” value is 95.84%.
On to `Cc1nc2n(c(=O)c1CCN1CCC(c3noc4cc(F)ccc34)CC1)CCCC2` [Risperidone], for which the “Aggregation (%)” value stood at 117.68%.
On the same count and under the same terms, to `CN1CCN(CC/C=C2/c3ccccc3Sc3ccc(S(=O)(=O)N(C)C)cc32)CC1` [Thiothixene] belongs 125.23%.
